Laboratory results taken from US20070232492A1, “Herbicidal Composition” (Ishihara Sangyo Kaisha, LTD., priority 2004, published 2007).

What was measured:
[1] = test system: Japanese bulrush (Scirpus juncoides); assay: Growth inhibition of Japanese bulrush in paddy soil pots, application under submerged condition, visual rating and Colby expected value; format: in vivo
Method in brief: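 Scirpus juncoides was sown in paddy soil pots flooded to 3.5 cm and treated under submerged conditions at the 2–3 leaf stage with water-diluted formulations, alone or in combination. Growth inhibition was rated visually 10 or 19 days after application (0% untreated to 100% complete kill). Expected combination values come from Colby's formula.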

[2] = test system: flatsedge (Cyperus serotinus); assay: Growth inhibition of flatsedge (planted tubers) in paddy soil pots, application under submerged condition, visual rating and Colby expected value; format: in vivo
Method in brief: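 Tubers grown in flooded paddy soil (3.5 cm water); compounds, alone or mixed, diluted in water and applied submerged at about 2.5-4 leaf stage. Growth inhibition rated visually 21-30 days later (0% untreated to 100% kill); expected mixture values by Colby equation.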

[3] = Schoenoplectiella juncoides, soil, 696 h, read-out: Growth inhibition rate (%) Observed

Compound: CCCOCCN(C(=O)CCl)c1c(CC)cccc1CC [Compound (B3.1), pretilachlor]
- inhibition at 50 g/ha ([1]; Schoenoplectiella juncoides, soil, 240 h, 0.5 g/a, 2.3 to 2.6 leaf stage, 10 days after application, read-out: Growth inhibition rate (%) Observed): 3%
- inhibition at 100 g/ha ([1]; Schoenoplectiella juncoides, soil, 240 h, 1 g/a, 2.3 to 2.6 leaf stage, 10 days after application, read-out: Growth inhibition rate (%) Observed): 10%
- inhibition at 400 g/ha ([2]; Cyperus serotinus, soil, 720 h, 4 g/a, 2.5 to 3.0 leaf stage, 30 days after application, Test Examples 46-60, read-out: Growth inhibition rate (%) Observed): 20%

Compound: COCC(=O)OC(c1ncccc1S(=O)(=O)NC(=O)Nc1nc(OC)cc(OC)n1)C(C)F (centres unmarked) [Compound A2, flucetosulfuron]
- Growth inhibition rate (%) Observed ([1]; 0.025 g/a, 2 leaf stage, 19 days after application, Test Example 33): 43%
- Growth inhibition rate (%) Observed ([1]; 0.025 g/a, 2.3 to 2.6 leaf stage, 10 days after application): 27%
- Growth inhibition rate (%) Observed ([1]; 0.05 g/a, 2 leaf stage, 19 days after application, Test Example 33): 70%
- Growth inhibition rate (%) Observed ([1]; 0.05 g/a, 2.3 to 2.6 leaf stage, 10 days after application): 40%
- Growth inhibition rate (%) Observed ([1]; 0.075 g/a, 2.6 to 3.1 leaf stage, 22 days after application, Test Examples 50, 58): 94%
- Growth inhibition rate (%) Observed ([1]; 0.1 g/a, 2.3 to 2.6 leaf stage, 10 days after application): 63%
- Growth inhibition rate (%) Observed ([1]; 0.125 g/a, 2 leaf stage, 19 days after application, Test Example 34): 50%
- Growth inhibition rate (%) Observed ([1]; 0.15 g/a, 2.6 to 3.1 leaf stage, 22 days after application, Test Examples 50, 58): 93%
- Growth inhibition rate (%) Observed ([1]; 0.167 g/a, 2 leaf stage, 19 days after application, Test Example 34): 79%
- Growth inhibition rate (%) Observed ([1]; 0.22 g/a, 2.2 to 2.8 leaf stage, 29 days after application, Test Example 44): 87%
- Growth inhibition rate (%) Observed ([1]; 1.5 g/a, 2 leaf stage, 19 days after application, Test Example 34): 87%
- Growth inhibition rate (%) Observed ([1]; 8.3 g/ha, 3 leaf stage, 19 days after application, Test Example 37): 70%
- Growth inhibition rate (%) Observed ([2]; 0.0275 g/a, 2.8 to 3.2 leaf stage, 29 days after application): 0%
- Growth inhibition rate (%) Observed ([2]; 0.15 g/a, 2.5 to 3.0 leaf stage, 30 days after application, Test Examples 46-60): 40%
- Growth inhibition rate (%) Observed ([2]; 0.2 g/a, 4 leaf stage, 21 days after application): 20%
- Growth inhibition rate (%) Observed ([2]; 0.4 g/a, 4 leaf stage, 21 days after application): 50%

Compound: CCS(=O)(=O)Oc1ccc2c(c1)C(C)(C)CO2 [Compound (B8.1), benfuresate]
- inhibition at 600 g/ha [1, 3]: 90%
- inhibition at 900 g/ha [1, 3]: 89%
- inhibition at 1200 g/ha [1, 3]: 89%
- inhibition at 600 g/ha ([2]; Cyperus serotinus, soil, 720 h, read-out: Growth inhibition rate (%) Observed): 93%
